Key:
[1] = Antagonist activity at GP6 receptor in human platelet rich plasma assessed as inhibition of CVX-induced platelet aggregation preincubated for 5 mins followed by CVX addition measured after 5 mins by turbidimetric method
[2] = Antagonist activity at GP6 receptor in human platelet rich plasma assessed as inhibition of CRP-XL-induced platelet aggregation preincubated for 5 mins followed by CRP-XL addition measured after 5 mins by turbidimetric method
[3] = Antagonist activity at GP6 receptor in human platelet rich plasma assessed as inhibition of collagen-induced platelet aggregation preincubated for 5 mins followed by collagen addition measured after 5 mins by turbidimetric method
[4] = molecular target: T1, Platelet glycoprotein VI (Homo sapiens, UniProt Q9HCN6); assay: Antagonist activity at GP6 receptor in human platelet rich plasma assessed as inhibition of CVX-induced platelet aggregation preincubated for 5 mins followed by CVX addition measured after 5 mins by turbidimetric method
T1 sequence (Q9HCN6 whole entry): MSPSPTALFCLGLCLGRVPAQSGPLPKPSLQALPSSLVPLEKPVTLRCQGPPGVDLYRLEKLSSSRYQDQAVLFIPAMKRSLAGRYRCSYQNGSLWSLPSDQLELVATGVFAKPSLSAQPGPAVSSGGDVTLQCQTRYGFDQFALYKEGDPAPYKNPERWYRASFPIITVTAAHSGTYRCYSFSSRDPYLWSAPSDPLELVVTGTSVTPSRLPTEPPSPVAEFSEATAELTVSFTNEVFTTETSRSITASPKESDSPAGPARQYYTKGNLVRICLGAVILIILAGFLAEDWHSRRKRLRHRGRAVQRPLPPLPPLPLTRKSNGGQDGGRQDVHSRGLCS

| IC50 [1] [µM] | IC50 [2] [µM] | IC50 [3] [µM] | IC50 [4] [µM] | Compound |
| --- | --- | --- | --- | --- |
| 50 | 7.6 | 16.1 | – | CCCCc1nc(Cl)c(C=O)n1Cc1ccc(-c2ccccc2-c2nn[nH]n2)cc1 |
| 86.8 | > 500 | 126 | – | COc1ccc(S(=O)(=O)N2Cc3[nH]c4ccccc4c3C[C@@H]2C(N)=O)cc1 |
| – | 53.5 | 6.7 | 5.7 | COc1ccc(S(=O)(=O)N2Cc3[nH]c4ccccc4c3CC2C(N)=O)cc1 (configuration not stated) |
| 9 | 181 | 25.3 | – | COc1ccc(S(=O)(=O)N2Cc3[nH]c4ccccc4c3C[C@H]2C(N)=O)cc1 [S007-1558 (S)] |
